Common to all, as to format: cell-based
One series has as its system pLai RLuc reporter virus. In words: HIV MT-4 serum shift antiviral reporter assay. The settings on record: Human immunodeficiency virus 1, 72 h. The protocol: To quantify the amount of protein binding to human serum, compounds were serially diluted (1:3) in DMSO and acoustically transferred onto 384-well assay plates via a Labcyte ECHO robot. Each plate contained up to 8 test compounds, including negative and positive controls, (DMSO, 5 μM AZT respectively). Assay plates were prepared in duplicate, and tested in either CCM (cell culture media) or HS/CCM (human serum/cell culture media). MT-4 cells were first pre-infected with pLai RLuc reporter virus for 2 h at 37° C., then further diluted in either CCM (RPMI media, 10% FBS, 1% P/S) or HS/CCM (RPMI media, 10% FBS, 50% HS, 1% P/S), and subsequently added to each plate using a Biotek Micro Flow dispenser. After a 72-h incubation in a humidified and temperature controlled incubator (37° C.), Renilla Glo (Promega) was added to all assay plates and chemiluminescence read using an Envision plate-reader. EC50 values were defined as the compound concentration that causes a 50% decrease in luminescence signal, and were calculated using a sigmoidal dose-response model to generate curve fits. To determine the amount of protein binding, EC50 fold shifts (or EC50 shifts) were calculated by dividing EC50 (HS/CCM)/EC50 (CCM).
For orientation: A reporter such as luciferase makes a cellular process visible.

For a further series, the system named is HIV-1 (IIIB). In words: Antiviral assay in MT-4 cells. The settings on record: Human immunodeficiency virus 1, IIIB, MT4, 120 h, HIV-1 IIIB infected MT-4 cells, 5 days, Cell Titer Glo; read-out: MT4 EC50. As to the method:
Antiviral Assay in MT-4 Cells
(§1) Compounds were tested in a high-throughput 384-well assay format for their ability to inhibit the replication of HIV-1 (IIIB) in MT-4 cells. Compounds were serially diluted (1:3) in DMSO on 384-well polypropylene plates and further diluted 200-fold into complete RPMI media (10% FBS, 1% P/S) using the Biotek Micro Flow and Labcyte ECHO acoustic dispenser. Each plate contained up to 8 test compounds, with negative (No Drug Control) and 5 μM AZT positive controls. MT-4 cells were pre-infected with 10 μL of either RPMI (mock-infected) or a fresh 1:250 dilution of HIV-1 IIIB concentrated virus stock. Infected and uninfected MT-4 cells were further diluted in complete RPMI media and added to each plate using a Micro Flow dispenser. After 5 days incubation in a humidified and temperature controlled incubator (37° C.), Cell Titer Glo (Promega) was added to the assay plates and chemiluminescence read using an Envision plate-reader. EC50 values were defined as the compound concentration that causes a 50% decrease in luminescence signal, and were calculated using a sigmoidal dose-response model to generate curve fits.

A short description of series [1]: Cytotoxicity assay in MT-4 cells. To be noted: human, uninfected MT-4 cells, 5 days, Cell Titer Glo; read-out: CC50. The protocol: as §1, with “fits. Cytotoxicity Assay in MT-4 Cells Assays were performed as above except uninfected MT-4 cells were added to each well containing test compound. In addition, 10 μM puromycin was added to the last column of each assay plate to assess a base level of cytotoxicity.” for “fits.”

The mark [2] stands for this setting: read-out: RLUC 50% HS (nM), HS/CCM: 50% human serum, 72 h, Renilla Glo.
The mark [3] stands for this setting: read-out: RLUC CCM (nM), cell culture media (RPMI, 10% FBS), 72 h, Renilla Glo.

Where two headings read alike, the source gives them in different places.

As for `C[C@@H]1C[C@H](F)[C@H](CF)N2CN1n1cc(C(=O)NCc3c(F)cc(F)cc3F)c(=O)c(O)c1C2=O` [Example C99, (1S,2R,4S,5S)-4-fluoro-5-(fluoromethyl)-8-hydroxy-2-methyl-7,9-dioxo-N-(2,4,6-trifluorobenzyl)-2,3,4,5,7,9-hexahydro-1,6-methanopyrido[1,2-b][1,2,5]triazonine-10-carboxamide], the EC50 with pLai RLuc reporter virus (setting [2]) turned out to be 349 nM; in the series with pLai RLuc reporter virus (setting [3]) it was 0.52 nM; in the series on HIV-1 (IIIB) it was 1.7 nM. Besides, in series [1], the CC50 at 5 days is 9440 nM.
Turning to `C[C@@H]1C[C@H](F)[C@H](C)N2CN1n1cc(C(=O)NCc3ccc(F)cc3F)c(=O)c(O)c1C2=O` [Example C52, (1S,2R,4S,5S)—N-(2,4-difluorobenzyl)-4-fluoro-8-hydroxy-2,5-dimethyl-7,9-dioxo-2,3,4,5,7,9-hexahydro-1,6-methanopyrido[1,2-b][1,2,5]triazonine-10-carboxamide], the EC50 in the series with pLai RLuc reporter virus (setting [2]) stood at 473 nM; in the series with pLai RLuc reporter virus (setting [3]) it was 0.77 nM; in the series on HIV-1 (IIIB) it was 1.5 nM. Besides, the CC50 at 5 days in series [1] is 9220 nM.
In the case of `CO[C@@H]1[C@H](OC)[C@@H](C)N2CN(C(=O)c3c(O)c(=O)c(C(=O)NCc4c(F)cc(F)cc4F)cn32)[C@H]1C` [Example C32, (1S,2R,3R,4S,5S)-8-hydroxy-3,4-dimethoxy-2,5-dimethyl-7,9-dioxo-N-(2,4,6-trifluorobenzyl)-2,3,4,5,7,9-hexahydro-1,6-methanopyrido[1,2-b][1,2,5]triazonine-10-carboxamide], the EC50 in the series with pLai RLuc reporter virus (setting [2]) worked out at 1.04 nM; with pLai RLuc reporter virus (setting [3]) it was 0.55 nM; with HIV-1 (IIIB), 2.4 nM. The CC50 at 5 days in series [1] was 28000 nM.
`C[C@@H]1C/C=C\CN2CN1n1cc(C(=O)NCc3c(F)cc(F)cc3F)c(=O)c(O)c1C2=O` [Example C16, (1S,2R,Z)-9-hydroxy-2-methyl-8,10-dioxo-N-(2,4,6-trifluorobenzyl)-3,6,8,10-tetrahydro-2H-1,7-methanopyrido[1,2-b][1,2,5]triazecine-11-carboxamide]: the EC50 came out at 19.4 nM with pLai RLuc reporter virus (setting [2]), 0.32 nM with pLai RLuc reporter virus (setting [3]) and 1.1 nM with HIV-1 (IIIB). In series [1], the CC50 at 5 days stood at 11400 nM.
Take `C[C@@H]1CC[C@H](CF)N2CN1n1cc(C(=O)NCc3ccc(F)cc3F)c(=O)c(O)c1C2=O` [Example C98, (1S,2R,5R)—N-(2,4-difluorobenzyl)-5-(fluoromethyl)-8-hydroxy-2-methyl-7,9-dioxo-2,3,4,5,7,9-hexahydro-1,6-methanopyrido[1,2-b][1,2,5]triazonine-10-carboxamide]: the values for the EC50 with pLai RLuc reporter virus (setting [2]), in the series with pLai RLuc reporter virus (setting [3]) and with HIV-1 (IIIB) were 462 nM, 1.03 nM and 2 nM, respectively. Moreover, the CC50 at 5 days in series [1] came out at 8930 nM.
As to `C[C@@H]1C[C@H](F)[C@H](C)N2CN1n1cc(C(=O)NCc3c(F)cc(F)cc3F)c(=O)c(O)c1C2=O` [Example C34, (1S,2R,4S,5S)-4-fluoro-8-hydroxy-2,5-dimethyl-7,9-dioxo-N-(2,4,6-trifluorobenzyl)-2,3,4,5,7,9-hexahydro-1,6-methanopyrido[1,2-b][1,2,5]triazonine-10-carboxamide], the EC50 in the series on pLai RLuc reporter virus (setting [2]) is 938 nM; in the series with pLai RLuc reporter virus (setting [3]), 0.59 nM; in the series on HIV-1 (IIIB), 1.4 nM. The 50% cytotoxic concentration (CC50) at 5 days in series [1] was 8360 nM.
For the compound `C[C@H]1CC[C@@H](C(F)F)N2CN1C(=O)c1c(O)c(=O)c(C(=O)NCc3ccc(F)cc3F)cn12` [Example C81, (1S,2S,5S)—N-(2,4-difluorobenzyl)-2-(difluoromethyl)-8-hydroxy-5-methyl-7,9-dioxo-2,3,4,5,7,9-hexahydro-1,6-methanopyrido[1,2-b][1,2,5]triazonine-10-carboxamide], the EC50 stood at 723 nM in the series on pLai RLuc reporter virus (setting [2]), 0.48 nM with pLai RLuc reporter virus (setting [3]) and 1.5 nM in the series with HIV-1 (IIIB). In addition, the CC50 at 5 days in series [1] was determined as 13700 nM.
`C[C@@H]1CC(F)(F)[C@H](C)N2CN1n1cc(C(=O)NCc3ccc(F)cc3F)c(=O)c(O)c1C2=O` [Example C54, (1S,2R,5S)—N-(2,4-difluorobenzyl)-4,4-difluoro-8-hydroxy-2,5-dimethyl-7,9-dioxo-2,3,4,5,7,9-hexahydro-1,6-methanopyrido[1,2-b][1,2,5]triazonine-10-carboxamide]: the values for the EC50 in the series with pLai RLuc reporter virus (setting [2]), in the series with pLai RLuc reporter virus (setting [3]) and in the series on HIV-1 (IIIB) were 72.4 nM, 0.63 nM and 2.3 nM, respectively. In addition, in series [1], the CC50 at 5 days was found to be 47400 nM.
`C[C@@H]1C[C@@H](CF)[C@H](C)N2CN1n1cc(C(=O)NCc3c(F)cc(F)cc3F)c(=O)c(O)c1C2=O` [Example C57, (1S,2R,4R,5S)-4-(fluoromethyl)-8-hydroxy-2,5-dimethyl-7,9-dioxo-N-(2,4,6-trifluorobenzyl)-2,3,4,5,7,9-hexahydro-1,6-methanopyrido[1,2-b][1,2,5]triazonine-10-carboxamide]: the EC50 in the series with pLai RLuc reporter virus (setting [2]) was 11.6 nM; with pLai RLuc reporter virus (setting [3]) it was 0.27 nM; with HIV-1 (IIIB) it was 1.2 nM. In addition, in series [1], the CC50 at 5 days worked out at 8930 nM.
As for `CC[C@H]1C=C[C@H](C)N2CN1n1cc(C(=O)NCc3c(F)cc(F)cc3F)c(=O)c(O)c1C2=O` [Example C106, (1S,2S,5S)-2-ethyl-8-hydroxy-5-methyl-7,9-dioxo-N-(2,4,6-trifluorobenzyl)-2,5,7,9-tetrahydro-1,6-methanopyrido[1,2-b][1,2,5]triazonine-10-carboxamide], the EC50 in the series on pLai RLuc reporter virus (setting [2]) worked out at 107 nM; with pLai RLuc reporter virus (setting [3]), 0.22 nM; with HIV-1 (IIIB), 1.7 nM. In series [1], the CC50 at 5 days came to 18400 nM.
For the compound `C[C@@H]1CC[C@@H](C)N2CN1C(=O)c1c(O)c(=O)c(C(=O)NCc3ccc(F)cc3F)cn12` [Example C67, (1S,2R,5R)—N-(2,4-difluorobenzyl)-8-hydroxy-2,5-dimethyl-7,9-dioxo-2,3,4,5,7,9-hexahydro-1,6-methanopyrido[1,2-b][1,2,5]triazonine-10-carboxamide], the EC50 is 35.3 nM in the series with pLai RLuc reporter virus (setting [2]), 0.51 nM in the series with pLai RLuc reporter virus (setting [3]) and 1.9 nM with HIV-1 (IIIB). In addition, the CC50 at 5 days in series [1] is 25500 nM.
As for `C[C@H]1CCCCN2CN1n1cc(C(=O)NCc3ccc(F)cc3F)c(=O)c(O)c1C2=O` [Example C42, (1R,2S)—N-(2,4-difluorobenzyl)-9-hydroxy-2-methyl-8,10-dioxo-3,4,5,6,8,10-hexahydro-2H-1,7-methanopyrido[1,2-b][1,2,5]triazecine-11-carboxamide], the EC50 with pLai RLuc reporter virus (setting [2]) worked out at 1880 nM; with pLai RLuc reporter virus (setting [3]), 2.47 nM; in the series on HIV-1 (IIIB), 2.2 nM. The CC50 at 5 days in series [1] was determined as 7030 nM.
With `CO[C@@H]1C[C@@H](C)N2CN(C(=O)c3c(O)c(=O)c(C(=O)NCc4c(F)cc(F)cc4F)cn32)[C@H]1C` [Example C33, (1S,2R,4R,5S)-8-hydroxy-4-methoxy-2,5-dimethyl-7,9-dioxo-N-(2,4,6-trifluorobenzyl)-2,3,4,5,7,9-hexahydro-1,6-methanopyrido[1,2-b][1,2,5]triazonine-10-carboxamide], the EC50 in the series on pLai RLuc reporter virus (setting [2]) was determined as 4.3 nM; in the series with pLai RLuc reporter virus (setting [3]), 1.8 nM; in the series with HIV-1 (IIIB), 4 nM. For the same compound, in series [1], the CC50 at 5 days came out at 32900 nM.
For the compound `C[C@H]1C=CCN2CN1C(=O)c1c(O)c(=O)c(C(=O)NCc3c(F)cc(F)cc3F)cn12` [Example C5, (10S)-6-hydroxy-10-methyl-5,8-dioxo-N-[(2,4,6-trifluorophenyl)methyl]-1,2,9-triazatricyclo[7.4.1.02,7]tetradeca-3,6,11-triene-4-carboxamide], the EC50 in the series on pLai RLuc reporter virus (setting [2]) was found to be 40.4 nM; in the series with pLai RLuc reporter virus (setting [3]), 0.42 nM; in the series with HIV-1 (IIIB), 3.4 nM. Also, the half-maximal cytotoxic concentration (CC50) at 5 days in series [1] turned out to be 14200 nM.

For orientation: CC50 means the concentration that lowers cell viability or growth by half.
